Holding throughout (type): biochemical
For assay [1], the target named is human recombinant FGFR2 catalytic structural domain protein (Homo sapiens (Human), UniProt P21802). The experiment in a line: FGFR2 activity inhibition test (HTRF kinase assay). The conditions noted are these: 50 μM ATP. As to the method: FGFR2 Activity Inhibition Test
The influence of the compound according to the present invention on the activity of fibroblast growth factor receptor 2 (FGFR2) was evaluated by an in vitro kinase assay experiment.
(§1) The experimental method is summarized as follows:
The in vitro activity of FGFR2 was determined by assaying the phosphorylation level of the substrate in the kinase reaction, by means of an HTRF kinase assay kit. The reaction buffer comprised the following components: 5-fold diluted Enzymatic buffer/kinase 5× (Cisbio, Catalog number 62EZBFDD) (main ingredient: 50 mM HEPES, pH 7.0), 5 mM MgCl2, 1 mM DTT; the human recombinant FGFR2 catalytic structural domain protein (amino acids 400-821) was commercially available from Beijing Sino Biological Inc., diluted with the reaction buffer to a 0.045 ng/μL kinase solution; the substrate reaction solution comprised a biotin labeled tyrosine kinase substrate diluted with the reaction buffer to 800 nM (Cisbio, catalog number 62TK0PEC), and 50 μM ATP, and the assay solution comprised an Eu^3+ labeled cage-shaped antibody (Cisbio, Catalog number 61T66KLB) diluted with the assay buffer (Cisbio, Catalog number 62SDBRDF) to 0.125 ng/μL, and 50 nM streptavidin labeled XL665 (Cisbio, Catalog number 610SAXLB).
(§2) The compound was dissolved and diluted in 100% DMSO to 100 μM, then 4-fold-series diluted with DMSO to a minimum concentration of 0.0061 μM, and each concentration point was then 40-fold diluted with the reaction buffer. If the IC50 value of the compound was very low, the initial concentration of the compound could be reduced.
(§3) 4 μL of a compound solution and 2 μL of an FGFR2 kinase solution were added into a 384 well assay plate (Thermo, Catalog number 264706), mixed uniformly and then incubated for 15 min at room temperature; subsequently, 4 μL of the substrate reaction solution was added therein, and the reaction mixture was incubated for 60 min at room temperature; and then 10 μL of an assay solution of an equal volume to the reaction was added therein and mixed uniformly, followed by placement at room temperature. After 60 min, the enzyme reaction was terminated by EDTA in the assay solution, and the phosphorylated products were identified by both the Eu^3+ labeled cage-shaped antibody (donor) and the streptavidin labeled XL665 antibody (receptor) at the same time. After the excitation with laser, the donors and receptors that were close to each other experienced energy resonance transfer, and the energy transferred from the donor (620 nm) to the receptor (665 nm) could be detected with Envision. The ratio of 665/620 is in positive correlation to the phosphorylation degree of the substrate, thereby to detect the FGFR2 kinase activity. […] The inhibition percentage of the compound against FGFR2 activity could be calculated with the following formula: Inhibition percentage=100−100*(signalcompound−signalnegative control)/(signalpositive control−signalnegative control)
(§4) The IC50 value of the compound was calculated by the following formula, from 10 concentration points, with XLfit (ID Business Solutions Ltd., UK): Y=Bottom+(Top−Bottom)/(1+10^((Log IC50−X)*slope factor))
(§5) Where, Y is the inhibition percentage, Bottom is the bottom plateau of the curve (the bottom plateau of the S-type curve), Top is the top plateau of the curve (the top plateau of the S-type curve), and X is the log value of the compound concentration to be measured.
In general terms: TR-FRET usually uses a lanthanide donor and a delayed reading to cut background.

The target of assay [2] is human recombinant FGFR3 catalytic structural domain protein (Homo sapiens (Human), UniProt P22607). The assay can be described thus: FGFR3 activity inhibition test (HTRF kinase assay). The following applies: 90 μM ATP. As to the method:
FGFR3 Activity Inhibition Test
The influence of the compound according to the present invention on the activity of fibroblast growth factor receptor 3 (FGFR3) was evaluated by an in vitro kinase assay experiment.
as §1
The in vitro activity of FGFR3 was determined by assaying the phosphorylation level of the substrate in the kinase reaction, by means of an HTRF kinase assay kit. The reaction buffer comprised the following components: 5-fold diluted Enzymatic buffer/kinase 5× (Cisbio, Catalog number 62EZBFDD) (main ingredient: 50 mM HEPES, pH 7.0), 5 mM MgCl2, 1 mM DTT; the human recombinant FGFR3 catalytic structural domain protein (amino acids 399-806) was commercially available from Sino Biological Inc., diluted with the reaction buffer to a 0.3 ng/μL kinase solution; the substrate reaction solution comprised a biotin labeled tyrosine kinase substrate diluted with the reaction buffer to 1000 nM (Cisbio, catalog number 62TK0PEC), and 90 μM ATP, and the assay solution comprised an Eu^3+ labeled cage-shaped antibody (Cisbio, Catalog number 61T66KLB) diluted with the assay buffer (Cisbio, Catalog number 62SDBRDF) to 0.125 ng/μL, and 62.5 nM streptavidin labeled XL665 (Cisbio, Catalog number 610SAXLB).
as §2
as §3, with “an FGFR3” for “an FGFR2”, “the FGFR3” for “the FGFR2”
(§6) The IC50 value of the compound was calculated by the following formula, from 10 concentration points, with XLfit (ID Business Solutions Ltd., UK): Y=Bottom+(Top−Bottom)/(1+10^((Log IC50−X)*slope factor)) Where, Y is the inhibition percentage, Bottom is the bottom plateau of the curve (the bottom plateau of the S-type curve), Top is the top plateau of the curve (the top plateau of the S-type curve), and X is the log value of the compound concentration to be measured.

The target of assay [3] is human recombinant FGFR1 catalytic structural domain protein (Homo sapiens (Human), UniProt P11362). The experiment in a line: FGFR1 activity inhibition test (HTRF kinase assay). The following applies: 40 μM ATP. On the procedure:
FGFR1 Activity Inhibition Test
The influence of the compound according to the present invention on the activity of fibroblast growth factor receptor 1 (FGFR1) was evaluated by an in vitro kinase assay experiment.
as §1
The in vitro activity of FGFR1 was determined by assaying the phosphorylation level of the substrate in the kinase reaction, by means of an HTRF kinase assay kit.
(§7) If the IC50 value of the compound was very low, the initial concentration of the compound could be reduced.
After 60 min, the enzyme reaction was terminated by EDTA in the assay solution, and the phosphorylated products were identified by both the Eu^3+ labeled cage-shaped antibody (donor) and the streptavidin labeled XL665 antibody (receptor) at the same time. […] The inhibition percentage of the compound against FGFR1 activity could be calculated with the following formula: Inhibition percentage=100−100*(signalcompound−signalnegative control)/(signalpositive control−signalnegative control)
as §4, §5

In assay [4] the target is human recombinant FGFR4 catalytic structural domain protein (Homo sapiens (Human), UniProt P22455). The assay can be described thus: FGFR4 activity inhibition test (HTRF kinase assay). The following applies: 90 μM ATP. As to the method:
FGFR4 Activity Inhibition Test
The influence of the compound according to the present invention on the activity of fibroblast growth factor receptor 4 (FGFR4) was evaluated by an in vitro kinase assay experiment.
as §1
The in vitro activity of FGFR4 was determined by assaying the phosphorylation level of the substrate in the kinase reaction, by means of an HTRF kinase assay kit.
as §7
After 60 min, the enzyme reaction was terminated by EDTA in the assay solution, and the phosphorylated products were identified by both the Eu^3+ labeled cage-shaped antibody (donor) and the streptavidin labeled XL665 antibody (receptor) at the same time. […] The inhibition percentage of the compound against FGFR4 activity could be calculated with the following formula: Inhibition percentage=100−100*(signalcompound−signalnegative control)/(signalpositive control−signalnegative control)
as §6

Results on six compounds are retold here after patent publication US10590109B2, “Heterocyclic compounds used as FGFR inhibitors” (Nanjing InnoCare Pharma Tech Co., Ltd., priority 2016, dated 2020).

human recombinant FGFR2 catalytic structural domain protein, sequence (P21802 400-821): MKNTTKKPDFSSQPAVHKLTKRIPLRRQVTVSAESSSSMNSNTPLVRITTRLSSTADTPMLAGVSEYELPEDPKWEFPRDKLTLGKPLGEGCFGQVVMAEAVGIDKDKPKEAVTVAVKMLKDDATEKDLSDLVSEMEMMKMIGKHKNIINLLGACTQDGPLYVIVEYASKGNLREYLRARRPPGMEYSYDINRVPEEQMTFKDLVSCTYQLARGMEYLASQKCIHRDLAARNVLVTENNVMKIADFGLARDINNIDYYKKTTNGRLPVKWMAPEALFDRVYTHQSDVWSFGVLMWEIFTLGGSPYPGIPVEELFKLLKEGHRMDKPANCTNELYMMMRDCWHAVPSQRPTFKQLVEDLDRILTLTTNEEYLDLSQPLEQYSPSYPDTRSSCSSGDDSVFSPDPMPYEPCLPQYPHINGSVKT
human recombinant FGFR4 catalytic structural domain protein, sequence (P22455 460-802): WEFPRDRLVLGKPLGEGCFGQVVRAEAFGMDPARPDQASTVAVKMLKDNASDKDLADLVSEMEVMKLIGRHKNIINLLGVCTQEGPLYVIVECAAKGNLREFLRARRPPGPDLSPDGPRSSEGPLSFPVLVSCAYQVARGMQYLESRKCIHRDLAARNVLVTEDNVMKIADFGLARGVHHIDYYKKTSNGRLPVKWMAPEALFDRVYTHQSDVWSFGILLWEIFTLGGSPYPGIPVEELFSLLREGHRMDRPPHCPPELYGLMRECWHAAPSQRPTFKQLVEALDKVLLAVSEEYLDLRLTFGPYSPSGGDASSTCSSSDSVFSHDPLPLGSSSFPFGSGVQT
human recombinant FGFR1 catalytic structural domain protein, sequence (P11362 other isoform, or with tags, fused parts or gaps): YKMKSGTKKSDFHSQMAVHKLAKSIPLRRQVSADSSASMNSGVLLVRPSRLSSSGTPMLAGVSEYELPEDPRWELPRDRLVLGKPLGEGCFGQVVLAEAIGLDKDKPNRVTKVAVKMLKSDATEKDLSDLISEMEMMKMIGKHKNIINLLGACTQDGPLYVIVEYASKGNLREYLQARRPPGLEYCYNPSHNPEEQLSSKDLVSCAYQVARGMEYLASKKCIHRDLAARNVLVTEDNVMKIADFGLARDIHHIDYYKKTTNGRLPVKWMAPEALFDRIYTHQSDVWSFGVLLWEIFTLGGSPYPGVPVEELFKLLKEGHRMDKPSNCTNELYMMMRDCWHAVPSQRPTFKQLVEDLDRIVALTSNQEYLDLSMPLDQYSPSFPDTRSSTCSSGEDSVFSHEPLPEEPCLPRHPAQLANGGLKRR
human recombinant FGFR3 catalytic structural domain protein, sequence (P22607 399-806): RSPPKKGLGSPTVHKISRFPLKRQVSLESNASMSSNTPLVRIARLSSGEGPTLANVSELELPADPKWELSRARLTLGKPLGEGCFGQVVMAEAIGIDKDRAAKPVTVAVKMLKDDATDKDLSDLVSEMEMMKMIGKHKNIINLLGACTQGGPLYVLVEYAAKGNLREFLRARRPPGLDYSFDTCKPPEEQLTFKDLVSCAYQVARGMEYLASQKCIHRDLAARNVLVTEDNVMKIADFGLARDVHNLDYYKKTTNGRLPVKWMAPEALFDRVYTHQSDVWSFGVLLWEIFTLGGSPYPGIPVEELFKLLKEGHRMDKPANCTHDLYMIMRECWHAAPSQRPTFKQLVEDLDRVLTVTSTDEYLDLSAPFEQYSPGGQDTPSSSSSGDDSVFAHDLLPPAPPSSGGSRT

Usually IC50 stands for the concentration needed to halve the response being measured. `COCCNc1cc(NC(=O)N(C)c2ccc(CO)c(C=O)n2)ncc1C#N` [Compound 21, 3-(5-cyano-4-((2-methoxyethyl)amino)pyrid-2-yl)-1-(6-formyl-5-(hydroxymethyl)pyrid-2-yl)-1-methylurea]: the IC50 in assay [1] was more than 1000 nM; in assay [2], more than 1000 nM; in assay [3], more than 1000 nM; in assay [4], 100 to 1000 nM.

With `C[C@H](CO)Oc1cc(NC(=O)N(C)c2ccc(CN3CCN(C)CC3=O)c(C=O)n2)ncc1C#N` [Compound 25, (R)-3-(5-cyano-4-((1-hydroxyprop-2-yl)oxy)pyrid-2-yl)-1-(6-formyl-5-((4-methyl-2-carbonylpiperazin-1-yl)methyl)pyrid-2-yl)-1-methylurea], the IC50 in assay [1] is more than 1000 nM; in assay [2] it was more than 1000 nM; in assay [3], more than 1000 nM; in assay [4], less than 10 nM.

`CC(C)Oc1cc(NC(=O)N(C)c2ccc(CN3CCOCC3=O)c(C=O)n2)ncc1C#N` [Compound 13]: the IC50 in assay [1] is more than 1000 nM; in assay [2] it was more than 1000 nM; in assay [3], more than 1000 nM; in assay [4], 10 to 100 nM.

For `CN(C(=O)Nc1cc(Cl)c(C#N)cn1)c1ccc(CO)c(C=O)n1` [Compound 22, 3-(4-chloro-5-cyanopyrid-2-yl)-1-(6-formyl-5-(hydroxymethyl)pyrid-2-yl)-1-methylurea], the IC50 was more than 1000 nM in assay [1], more than 1000 nM in assay [2], more than 1000 nM in assay [3] and 100 to 1000 nM in assay [4].

On to `COCCOc1cc(NC(=O)N(C)c2ccc(CN3CCN(C)CC3=O)c(C=O)n2)ncc1C#N` [Compound 20, 3-(5-cyano-4-(2-methoxyethoxy)pyrid-2-yl)-1-(6-formyl-5-((4-methyl-2-carbonylpiperazin-1-yl)methyl)pyrid-2-yl)-1-methylurea], for which the IC50 in assay [1] is more than 1000 nM; in assay [2], more than 1000 nM; in assay [3], more than 1000 nM; in assay [4], less than 10 nM.

As to `CN(C(=O)Nc1cc(Cl)c(C#N)cn1)c1ccc(CN2CCOCC2=O)c(C=O)n1` [Compound 11], the concentration for half-maximal inhibition (IC50) in assay [1] is more than 1000 nM; in assay [2], more than 1000 nM; in assay [3] it was more than 1000 nM; in assay [4], 10 to 100 nM.
